These results are taken from PubChem BioAssay AID1963838 (Molecular Pharmacology Branch, DTP, NCI, 2024).

Several values for one entry are separate records, joined by “and”; a condition that tells them apart may be missing. Equal values may be shown once.

In this test the test system is 855422-203-R-J1-PDC complex spheroid viability. In words: Anticancer human tumor 855422-203-R-J1-PDC patient-derived bladder carcinoma cell line growth inhibition [POLQ]. As to conditions: for viability, T/C: stronger effect = lower value. On the procedure: Multicellular complex tumor spheroid response to Polymerase (POL) inhibitors (novobiocin, ART-558, RP6685) in combination with a variety of drugs and investigational agents in selected tumor cell lines
The POL inhibitors (novobiocin, ART-558, and RP6685) were evaluated both individually and in combination with standard of care and investigational anticancer small molecules within a complex spheroid model of solid tumors. . Complex spheroids include a stromal component modeled by human endothelial cells (HUVEC) and fibroblasts modeled by human mesenchymal stem cells (MSCs). The concentration ranges selected for each drug and investigational agent were based upon clinically achievable concentrations if the clinical Cmax of the agent was known.
Compounds. The drugs and investigational agents: novobiocin (NSC847541), ART-558 (NSC835418), RP-6685 (NSC848927), peposertib (NSC802822), ceralasertib (NSC780249), elimusertib (NSC800525), camonsertib (NSC841442), AZD-1390 (NSC803789), olaparib (NSC753686), talazoparib (NSC767125), rucaparib (NSC756644), sotorasib (NSC818433), MRTX-1133 (NSC836407), SN-38 (NSC673596), topotecan (NSC609699), epotoside (NSC141540), doxorubicin (NSC123127), gemcitabine (NSC613327), 5-fluorouracil (NSC19893), paclitaxel (NSC125973), vemurafenib (NSC761431), MSA-2 (NSC828583), SN-011 (NSC837082), adavosertib (NSC754352), prexasertib (NSC758257), carboplatin (NSC241240) and oxaliplatin (NSC266046), were obtained from the National Cancer Institute (NCI) Developmental Therapeutics Program Chemical Repository (21). The FDA-approved anticancer drug set is available from the Developmental Therapeutics Program at https://dtp.cancer.gov/organization/dscb/obtaining/. […] The stock solutions were prepared in dimethyl sulfoxide (DMSO, Sigma-Aldrich, St. Louis, MO, cat. D2650), except for the platinum compounds which were prepared in saline (Quality Biological, Gaithersburg, MD, cat. 114-055-101), at 800-fold the tested concentration and stored at -70 degrees C prior to their use. All drugs and investigational agents were tested over a range starting from a high concentration at or near the clinical Cmax and decreasing in half-log increments. If the clinical Cmax for an agent had not been determined, the highest concentration tested was 10 microM, except for SN-38, which was tested at a high concentration of 1 microM.
Cell Culture. All cells were maintained in an incubator at 37 degrees C and 5% CO2 with 95% humidity. The PDC lines were cultured according to standard operating procedures established by the NCI PDMR (https://pdmr.cancer.gov). Table 3 of the manuscript, lists the cell lines along with the number of the three cell types plated to form the mct-spheroids and media for tumor cell growth. After thawing, all PDC lines, except 997537-175-T-J1-PDC and 415267-285-R-J2-PDC, were cultured in Matrigel-coated flasks prepared with a working solution of 1X Ham's F-12 nutrient mix, without supplementation (Thermo Fisher Scientific, cat. 11765054), 100 U/mL penicillin-streptomycin (Thermo Fisher Scientific, cat. 15140122), and 2.5% Matrigel (Corning Inc., Corning, NY, cat. 354248) for the first three passages. The two PDC lines 997537-175-T-J1-PDC and 415267-285-R-J2-PDC were cultured on uncoated flasks. The 857933-349-R-J2-PDC line was cultured in 6C/Colon 1B media containing advanced DMEM/F-12 (Thermo Fisher Scientific, cat. 12634028), 10 mM HEPES (Thermo Fisher Scientific, cat. 15630080), 1X GlutaMAX supplement (Thermo Fisher Scientific, cat. 35050061), 0.1 mg/mL primocin (InvivoGen, San Diego, CA, cat. ant-pm-2), 10% defined fetal bovine serum, heat inactivated (HyClone Laboratories Inc., Logan, UT, cat. SH30070.03HI), 50% L-WRN conditioned media (ATCC, cat. CRL-3276), 1.25 mM N-Acetyl-L-cysteine (Sigma-Aldrich, cat. A9165), 10 mM nicotinamide (Sigma-Aldrich, cat. N0636), 1X B-27 supplement (Thermo Fisher Scientific, cat. 17504044), 1X N-2 supplement (Thermo Fisher Scientific, cat. […]

[1] abbreviates: compound alone, run of 01/19/2024.
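Note: spheroids exposed to compounds for seven days before readout.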

Regarding `COc1cc(C2c3cc4c(cc3C(OC3OC5COC(C)OC5C(O)C3O)C3COC(=O)C23)OCO4)cc(OC)c1O` (centres undefined), the viability, T/C – broadly, the ratio of treated to control – (compound 0.0316 µM) was 99.8% and 116% and 97.3%; the viability, T/C (compound 0.1 µM) is 92.7% and 114% and 91%; the viability, T/C (compound 0.316 µM) is 31.5% and 78.4% and 34%; the viability, T/C (compound 1 µM) was 9.39% and 19.9% and 12.1%; the viability, T/C (compound 3.16 µM) is 7.03% and 8.72% and 9.59%; the viability, T/C (compound 10 µM) is 4.41% and 6.81% and 5.26%. For the same molecule, the half-inhibitory concentration (IC50) (as a rule, the concentration that gives 50% inhibition) (curve of compound) is 224 nM and 553 nM and 229 nM.
Consider `COc1ccc([C@@H](O)c2cc(-c3ncnc4cc(N5CCOCC5)ccc34)c(F)cc2Cl)nn1`, for which the viability, T/C is 86.6% and 104% and 118% (compound 0.0316 µM); 103% and 107% and 96.5% (compound 0.1 µM); 94.5% and 103% and 109% (compound 0.316 µM); 87.2% and 91.5% and 88.8% (compound 1 µM); 60.9% and 109% and 69.5% (compound 3.16 µM); 32% and 58.2% and 37.4% (compound 10 µM). Also, the 50% inhibitory concentration (IC50) (curve of compound) was 4870 nM and > 10000 nM and 6350 nM.
Regarding `COc1cccc(OCCCN)c1-c1cc(Nc2cnc(C#N)cn2)n[nH]1`, the viability, T/C is 108% and 98.1% and 104% (compound 0.00316 µM); 86.8% and 138% and 132% (compound 0.01 µM); 12.2% and 23.8% and 37.9% (compound 0.0316 µM); 9.96% and 13.6% and 17.5% (compound 0.1 µM); 5.57% and 7.75% and 6.55% (compound 0.316 µM); 4.87% and 6.23% and 5.82% (compound 1 µM). Moreover, the concentration for half-maximal inhibition (IC50) (curve of compound) was 17.7 nM and 23 nM and 26.6 nM.
As for `COc1cccc2c1C(=O)c1c(O)c3c(c(O)c1C2=O)CC(O)(C(=O)CO)CC3OC1CC(N)C(O)C(C)O1` (centres undefined), the viability, T/C reads like this: (compound 0.0316 µM) 20.9% and 28.2% and 13.1%; (compound 0.1 µM) 9.22% and 14.2% and 10.2%; (compound 0.316 µM) 3.11% and 2.95% and 2.47%; (compound 1 µM) 0.45% and 0.73% and 0.38%; (compound 3.16 µM) 0.69% and 0.96% and 0.43%; (compound 10 µM) 3.06% and 2.86% and 1.27%. For the same molecule, for the setting “curve of compound”, the half-maximal inhibitory concentration (IC50) was less than 31.6 nM.
Consider `Cc1cccc(N(C)C(=O)C2C(O)CCN2c2nc(C)cc(C(F)(F)F)c2C#N)c1` (centres undefined), for which the viability, T/C runs as follows: (compound 0.0316 µM) 107% [middle of 13 runs]; (compound 0.316 µM) 106% [middle of 13 runs]; (compound 1 µM) 102% [middle of 13 runs]; (compound 3.16 µM) 102% [middle of 13 runs]; (compound 10 µM) 103% [middle of 13 runs]. For the same molecule, the IC50 is, setting by setting: (compound alone, run of 01/08/2024) greater than 10000 nM; under setting [1], greater than 10000 nM.
Turning to `Cn1ncnc1[C@H]1c2n[nH]c(=O)c3cc(F)cc(c23)N[C@@H]1c1ccc(F)cc1`, the viability, T/C runs as follows: (compound 0.000316 µM) 108% and 99.8% and 105%; (compound 0.001 µM) 97% and 116% and 97.1%; (compound 0.00316 µM) 108% and 105% and 111%; (compound 0.01 µM) 108% and 122% and 110%; (compound 0.0316 µM) 102% and 93.4% and 118%; (compound 0.1 µM) 96.6% and 134% and 88.6%. The half-maximal inhibitory concentration (IC50) (curve of compound) was greater than 100 nM.
Turning to `Nc1ccc(C#CCN(C(=O)Cc2ncc(C(F)(F)F)cc2C(F)(F)F)c2ccc(F)cc2)nn1`, the viability, T/C was 101% [middle of 13 runs] (compound 0.0316 µM); 104% [middle of 13 runs] (compound 0.1 µM); 107% [middle of 13 runs] (compound 0.316 µM); 95.7% [middle of 13 runs] (compound 3.16 µM); 90.4% [middle of 13 runs] (compound 10 µM). Also, under setting [1], the IC50 was greater than 10000 nM.
In the case of `Nc1ccn(C2OC(CO)C(O)C2(F)F)c(=O)n1` (centres undefined), the viability, T/C (compound 0.0316 µM) was 81.1% and 75.1% and 69.6%; the viability, T/C (compound 0.1 µM) is 41.7% and 19.3% and 37.9%; the viability, T/C (compound 0.316 µM) is 17.7% and 14.3% and 12.9%; the viability, T/C (compound 1 µM) is 13.3% and 13.5% and 11.3%; the viability, T/C (compound 3.16 µM) was 7.69% and 9.12% and 7.82%; the viability, T/C (compound 10 µM) was 6.31% and 7.6% and 6.51%. Under “curve of compound”, the half-inhibitory concentration (IC50) is 77.7 nM and 53.1 nM and 64.2 nM.
As for `O=C(c1cc(Cc2n[nH]c(=O)c3ccccc23)ccc1F)N1CCN(C(=O)C2CC2)CC1`, the viability, T/C was 109% and 103% and 94% (compound 0.0316 µM); 107% and 106% and 112% (compound 0.1 µM); 92.1% and 100% and 112% (compound 0.316 µM); 108% and 103% and 98.3% (compound 1 µM); 106% and 98.1% and 124% (compound 3.16 µM); 82.5% and 70% and 121% (compound 10 µM). For the same molecule, the IC50 (curve of compound) is greater than 10000 nM.
Regarding `O=c1[nH]cc(F)c(=O)[nH]1`, the viability, T/C is, setting by setting: (compound 0.0316 µM) 116% and 95.4% and 99.2%; (compound 0.1 µM) 105% and 104% and 102%; (compound 0.316 µM) 61.8% and 118% and 55.4%; (compound 1 µM) 32.8% and 67% and 34.3%; (compound 3.16 µM) 29.6% and 40.2% and 26.3%; (compound 10 µM) 23.3% and 44.2% and 22.9%. The IC50 (curve of compound) was 507 nM and 2200 nM and 405 nM.
